Data as given in ChEMBL document CHEMBL3301555, “MMV Malaria Box screening in pLDH viability assay against Plasmodium falciparum gametocytes”.

Test system: Plasmodium falciparum
Assay: MMV: Measure of pLDH activity as indication of parasite viability. Gametocytogenesis of 3D7 Plasmodium falciparum strain was induced in vitro and asexual parasites were depleted with N-acetylglucosamine. Gametocytes were treated with dihydroartemisinin, epoxomicin, methylene blue, primaquine, puromycin or chloroquine in 96-well plates and the pLDH activity was evaluated using a modified Makler protocol. Mosquito infectivity was measured by the standard membrane feeding assay.
Format: functional
Set-up: concentration or dose not given beside the values

CCOc1cc(CNC(C)C(O)c2ccccc2)cc(Cl)c1OCC (configuration not stated)
Growth Inhibition: 17.857%

Cc1cc(NC(=O)c2cccc(C(F)(F)F)c2)n(-c2nc(-c3ccc4c(c3)OCO4)cs2)n1
Growth Inhibition: 1.3202%

COc1cccc(C2(C)Nc3ccccc3-c3nc4ccccc4n32)c1 (configuration not stated)
Growth Inhibition: 2.1776%

CC(C)CNC(=O)c1c(N)n(CCc2ccccc2F)c2nc3ccccc3nc12
Growth Inhibition: -1.2922%

O=C(Nc1ccccc1O)c1ccc(Oc2cccc(C(=O)Nc3ccccc3O)c2)cc1
Growth Inhibition: 23.386%

Cc1ccc(-c2cc3c(nn2)-c2ccccc2C3=O)cc1
Growth Inhibition: 32.1362%

Oc1ccccc1CN1CCC2(CCCN(Cc3ccccc3F)C2)C1 (configuration not stated)
Growth Inhibition: 46.3042%

COc1cccc(O)c1CN1CCC2(CCCN(Cc3ccc(F)cc3)C2)C1 (configuration not stated)
Growth Inhibition: 38.0312%

COc1cccc(Nc2nc(NCCO)c3ccccc3n2)c1.Cl
Growth Inhibition: 21.665%

Cc1ccc(-c2cc(C(=O)Nc3ccc(S(=O)(=O)N4CCCCC4)cc3)[nH]n2)c(O)c1
Growth Inhibition: 28.7504%

O=C(NCc1ccco1)C1CCN(S(=O)(=O)c2ccc(Cl)cc2)CC1
Growth Inhibition: 3.8942%

COc1ccc(C(=O)Nc2ccc3nc(N4CCCCC4)cc(C)c3c2)cc1OC
Growth Inhibition: 11.0486%

COCCNCC(O)Cn1c2ccc(Cl)cc2c2cc(Cl)ccc21 (configuration not stated)
Growth Inhibition: 45.598%

COc1ccc(N2CCN(C(CNC(=O)C3CCCCC3)c3ccc4c(c3)OCO4)CC2)cc1 (configuration not stated)
Growth Inhibition: 22.7332%

FC(F)(F)c1ccc(Nc2nnnc3ccccc23)cc1
Growth Inhibition: 21.2738%

O=C(NC1CCN(Cc2ccccc2)CC1)c1cc(-c2ccncc2)nc2ccc(Cl)cc12
Growth Inhibition: 12.9682%

c1ccc(-c2ccc(-c3nc4ccccc4[nH]3)cc2)cc1
Growth Inhibition: 7.2118%

CCC(C)NCC(O)(c1ccc(Cl)cc1)c1ccc(Cl)cc1 (configuration not stated)
Growth Inhibition: 29.3926%

COc1cc2cc(C(=O)Nc3ccccc3)c(N)nc2cc1OC
Growth Inhibition: 2.432%

COc1cccc(NC(=O)Cn2c(C)c(C#N)c3ccccc32)c1
Growth Inhibition: 15.89%

Cn1c(=O)c2cc(C(=O)NCCCN3CCCCCC3)sc2c2ccccc21
Growth Inhibition: 15.852%

Cc1[nH]c(-c2ccc(F)cc2)cc1C(=O)NC1CCN(Cc2ccccc2)CC1
Growth Inhibition: 9.4322%

COc1ccc(CCN2CCC(CN(C)Cc3cnn(-c4ccccc4)c3)CC2)cc1
Growth Inhibition: 34.868%

COCCNC(=O)c1ccc(OC2CCN(Cc3ccc(F)c(F)c3)CC2)c(Cl)c1
Growth Inhibition: 5.6964%

O=C(O)C(=O)O.Oc1ccccc1CN1CCN(C(c2ccccc2)c2ccccc2)CC1
Growth Inhibition: 27.3522%

O=C(NC1CCCC1)c1ccc(N2CCC(NCc3cccc(C(F)(F)F)c3)CC2)cc1
Growth Inhibition: 6.6358%

CCOc1cc(Br)c(C(C)NC(=O)c2cccc(OC)c2)cc1OCC (configuration not stated)
Growth Inhibition: 15.2596%

CC(C)=CCN1CCC(C(=O)Nc2ccc(-c3nc4ccccc4[nH]3)cc2)CC1
Growth Inhibition: 16.6684%

CCOc1cc(Cl)c(C(C)NC(=O)c2cccc(OC)c2)cc1OCC (configuration not stated)
Growth Inhibition: 18.9364%

O=C(CCc1ccco1)NC1CCN(CC2(c3ccc(Cl)cc3)CCC2)CC1
Growth Inhibition: 18.8072%

FC(F)(F)c1cccc(Nc2nc(-c3ccccc3)nc3ncccc23)c1
Growth Inhibition: 9.5538%

CCN1CCN(c2cc(C)c3cc(NC(=O)c4ccc(OC)c(OC)c4)ccc3n2)CC1
Growth Inhibition: 12.8102%

CC(=O)Nc1nnc(SCc2c(C)cc(C(C)(C)C)cc2C)s1
Growth Inhibition: -6.288%

Cc1ccc(Cl)cc1N1CCN(CCCNC(=O)C2CCN(c3nc4ccccc4[nH]3)CC2)CC1
Growth Inhibition: 21.502%

COc1ccc(CNC2CCN(c3ccc(NC(=O)c4cccc(Cl)c4)cc3)CC2)cc1OC
Growth Inhibition: 12.3618%

COCCN(C(=O)Cc1cccs1)C(C(=O)NCc1ccc(OC)cc1)c1ccc(C(C)C)cc1 (configuration not stated)
Growth Inhibition: 12.1412%

Cc1ccc(CSCc2ccc(C(=O)NC3CC3)o2)cc1
Growth Inhibition: 9.7118%

CC(NCc1ccccc1)c1cc(Cl)ccc1O (configuration not stated)
Growth Inhibition: 40.6308%

CN1CCN(c2c3c(c(C#N)c4nc5ccccc5n24)CCC3)CC1
Growth Inhibition: 7.7684%

CCOc1ccc(C2N(C)c3ccccc3N2C)cc1
Growth Inhibition: 9.8332%

FC(F)(F)c1cccc(CNC2CCN(CCc3ccccc3)CC2)c1
Growth Inhibition: 12.4718%

Oc1ccc(Cl)cc1CNc1nc2ccccc2[nH]1
Growth Inhibition: 5.249%

CCOc1cc(Cl)c(C(C)NC(=O)c2ccccc2)cc1OCC (configuration not stated)
Growth Inhibition: 3.3956%

O=C(c1ccccc1F)N(Cc1ccc(Cl)cc1)c1ccccn1
Growth Inhibition: 9.2554%

COc1ccc(C(=O)Nc2ccc(Cl)cc2C(=O)Nc2ccncc2)cc1
Growth Inhibition: 8.2224%

O=C(Nc1ccc(CN2CCOCC2)cc1)c1ccc(-c2ccc(Br)cc2)o1
Growth Inhibition: 17.4274%

CC(=O)NCCc1nc2ccccc2n1Cc1ccc(C(C)C)cc1
Growth Inhibition: 10.8344%

COc1nc(Nc2ccc(C(C)C)cc2)nc(OC)n1
Growth Inhibition: 1.041%

CCN(CC)CCNc1ncnc2c1[nH]c1ccc(Br)cc12
Growth Inhibition: 8.817%

CCOc1cccc(C(=O)Nc2ccc(-c3nc4ccccc4[nH]3)cc2)c1
Growth Inhibition: 7.5178%

O=C(Nc1ccc(Cl)cc1)N1CCN(c2ccc3nncn3n2)CC1
Growth Inhibition: -0.5422%

CN(C)c1ccc(-c2nc3cc(N)ccc3[nH]2)cc1
Growth Inhibition: 18.3914%

O=C(CSc1ccc2nnc(-c3cccc(F)c3)n2n1)Nc1ccc2c(c1)OCO2
Growth Inhibition: 8.1908%

Cc1c(C)n(Cc2ccc(F)cc2)c2ccc(C(=O)NCc3ccco3)cc12
Growth Inhibition: 19.2814%

CCN(CC)c1ccc(NC(=O)c2cccs2)cc1
Growth Inhibition: 3.9542%

CCCCNCC(O)(c1ccc(Cl)cc1)c1ccc(Cl)cc1
Growth Inhibition: 33.502%

CCCC(c1nnnn1C1CCCCC1)N1CCN(C(=O)c2ccco2)CC1.Cl (configuration not stated)
Growth Inhibition: 10.3688%

CC(C)(C)C(=O)Nc1ccc(C(=O)Nc2cccc(-c3nc4ccccc4[nH]3)c2)cc1
Growth Inhibition: 13.3516%

COc1ccc(-c2nonc2NC(=O)c2cccc(C)c2)cc1OC
Growth Inhibition: 3.7758%

COc1cccc(-c2nn(C)c3sc(C(=O)NCCN4CCN(c5ccccc5F)CC4)cc23)c1
Growth Inhibition: 20.4084%

O=C(Nc1ccc(N2CCN(Cc3ccccc3)CC2)cc1)c1cccs1.O=C(O)C(F)(F)F
Growth Inhibition: -8.6144%

Cc1ccc(CN2CCC(C(=O)Nc3ccc(-c4cc5ccccc5[nH]4)cc3)CC2)o1
Growth Inhibition: 25.7326%

O=C(Nc1ccc(N2CCCCC2)c(Cl)c1)c1ccc(Br)o1
Growth Inhibition: -4.8588%

CCn1c(SCC(=O)Nc2cc(C(F)(F)F)ccc2Cl)nc2ccccc2c1=O
Growth Inhibition: -1.2952%

Cc1ccc(Cn2c(N3CCC(C(=O)NCc4cccs4)CC3)nc3ccccc32)cc1
Growth Inhibition: -1.5746%

O=C(Nc1ccsc1C(=O)NC1CCCCC1)c1ccc(F)cc1
Growth Inhibition: 7.047%

O=C(Nc1ccc(Cl)cc1C(=O)Nc1ccncc1)c1ccc(Cl)cc1Cl
Growth Inhibition: 4.844%

O=C(Nc1cccc(C(F)(F)F)c1)c1cc(Cl)ccc1O
Growth Inhibition: 14.365%

CC(C)(C)c1ccc(C(=O)Nc2nc3ccccc3s2)cc1
Growth Inhibition: 9.3876%

CCOc1cccc2sc(N(Cc3cccnc3)C(=O)C3CCCCC3)nc12
Growth Inhibition: 1.8442%

CC1CC(C)CN(C(=O)c2ccc(Cl)cc2Cl)C1 (configuration not stated)
Growth Inhibition: -2.8594%

COc1ccccc1CNC(=O)C1c2ccccc2C(=O)N(CC(C)C)C1c1cccs1 (configuration not stated)
Growth Inhibition: 12.474%

OC(CNC1CCCC1)Cn1c2ccccc2c2ccccc21 (configuration not stated)
Growth Inhibition: 39.5038%

CCOc1ccc(-c2nonc2NC(=O)c2cccc(C)c2)cc1OCC
Growth Inhibition: 30.014%

COc1ccc(C2N(C)c3ccccc3N2C)cc1
Growth Inhibition: 3.9982%

CCN(CC)c1cc(C)c2cc(NC(=O)c3cccc(OC)c3)ccc2n1
Growth Inhibition: 11.335%

CC(C)(C)CC(C)(C)NCC(O)COc1ccc2c(c1)CCC2.Cl (configuration not stated)
Growth Inhibition: 14.2274%

CCOc1ccc(/C=C/c2nc(=O)c3ccccc3o2)cc1
Growth Inhibition: 7.7706%

O=C(Nc1ccccc1O)c1ccc(-c2ccc(Cl)cc2Cl)o1
Growth Inhibition: 15.81%

O=C(Nc1nc(-c2ccccn2)cs1)c1ccccc1Br
Growth Inhibition: 29.0858%

O=C(Nc1ccc(F)c(Cl)c1)Nc1ccc(Cl)c(Cl)c1
Growth Inhibition: 4.6714%

CC(O)(c1ccc(Cl)cc1)C(CN1CCCCC1)c1ccccc1.Cl (configuration not stated)
Growth Inhibition: 18.9754%

CCCCc1ccc(NS(=O)(=O)c2cc3c4c(c2)CCN4C(=O)CC3)cc1
Growth Inhibition: -1.4264%

CCOc1ccc(-c2nc(NC(=O)c3cccc(S(C)(=O)=O)c3)sc2C)cc1
Growth Inhibition: 10.5858%

CCOc1ccccc1CNC(=O)C1c2ccccc2C(=O)N(CC(C)C)C1c1cccs1 (configuration not stated)
Growth Inhibition: 7.24%

Clc1ccc2[nH]c3c(NCCCN4CCOCC4)ncnc3c2c1
Growth Inhibition: 9.617%

COc1ccccc1N1CCN(C(CNS(=O)(=O)c2ccc(Cl)cc2)c2cccnc2)CC1 (configuration not stated)
Growth Inhibition: 14.3398%

Oc1c2c(nc3cc(-c4ccccc4)nn13)CCCC2
Growth Inhibition: 5.0802%

CCCc1c(C)nc2ccccc2c1O
Growth Inhibition: 34.5652%

CCOc1c(Cl)cc(CNC(C)C(O)c2ccccc2)cc1OC (configuration not stated)
Growth Inhibition: 22.4902%

COc1ccc(C2Sc3ccccc3N=C3C2=C(O)c2ccccc23)cc1 (configuration not stated)
Growth Inhibition: -5.7444%

CCCN(CCC)CCCNC(=O)c1cc2c(-c3ccc(OC)c(OC)c3)nn(C)c2s1
Growth Inhibition: 9.751%

Cc1cc(N2CCN(C3CCCC3)CC2)n2c(nc3ccccc32)c1C#N
Growth Inhibition: 0.943%

CCN(CC)CCCNc1nc(-c2ccc(Cl)cc2)nc2ccccc12
Growth Inhibition: 7.9964%

CN1c2ccccc2N(C)C1c1ccc2c(c1)OCO2
Growth Inhibition: 17.3464%

CCCCOc1ccc(C(=O)Nc2cc(C)on2)cc1
Growth Inhibition: -2.1422%

O=C(NCC1Cc2cccc(-c3ccncc3)c2O1)c1csc2c1CCCC2 (configuration not stated)
Growth Inhibition: 15.175%

CC1CCCCN1CCCNC(=O)c1ccc2c(c1)sc1nc(-c3ccc(F)cc3)cn12 (configuration not stated)
Growth Inhibition: 16.9994%

CCc1ccc(Nc2cc(C)nc3nc(C)nn23)cc1
Growth Inhibition: -2.3802%

Br.CCN(CC)S(=O)(=O)c1ccc(-c2csc(Nc3ccc(C)c(C)c3)n2)cc1
Growth Inhibition: 9.3564%

C=C(C)CCC(C)N1CCC(N2CCC(C(=O)NCCc3ccccc3)CC2)CC1 (configuration not stated)
Growth Inhibition: 9.4772%

C=CCc1c(C)nc2ccccc2c1O
Growth Inhibition: 8.3394%
